In patent US20240165244A1 (Prelude Therapeutics Incorporated, priority 2022, published 2024) one finds DC50 and Dmax data, which are given here for eleven compounds.

One assay deals with T1, SMARCA2 (Homo sapiens, UniProt P51531).
T1 construct: SMARCA2-HiBiT knock-in Hela monoclonal cell (CS302366); host or cells: HeLa monoclonal cells with heterozygous HiBiT knock-in at the endogenous SMARCA2 locus
The assay can be described thus: SMARCA2 HiBiT degradation assay in HeLa cells. In kind it is cell-based. The settings on record: 18 hours, highest concentration 10 μM. The procedure: (§1) SMARCA2 HiBiT and SMARCA4 HiBiT Degradation Assay
HiBiT peptide knock-in of SMARCA2 in LgBiT expressing HEK293T cells was performed by CRISPR-mediated tagging system as described Promega. The homozygous HiBiT knock-in on c-terminus SMARCA2 was confirmed by sanger sequence. SMARCA2-HiBiT knock-in Hela monoclonal cell (CS302366) and SMARCA4-HiBiT knock-in Hela monoclonal cell (CS3023226) were purchased from Promega. The heterozygous HiBiT-knock-in was confirmed by sanger sequence in both SMARCA2-HiBiT and SMARCA4-HiBiT monoclonal cells.
(§2) SMARCA2 HiBiT and SMARCA4 HiBiT Degradation Assay in HeLa Cells
Dispense 10 ul aliquot of prepared Hela-SMARCA2-HiBiT or Hela-SMARCA4-HiBiT cells (1:1 ratio of cells:Trypan Blue (#1450013, Bio-Rad)) onto cell counting slide (#145-0011, Bio-Rad) and obtain cell density and cell viability using cell counter (TC20, Bio-Rad). Remove appropriate volume of resuspended cells from culture flask to accommodate 2500 cells/well @ 20 μL/well. Transfer Hela-HiBiT cells to 50 mL conical (#430290, Corning). Spin down at 1000 rpm for 5 min using tabletop centrifuge (SPINCHRON 15, Beckman). Discard supernatant and resuspend cell pellet in modified EMEM (#30-2003, ATCC) cell culture media containing 10% FBS (F2422-500ML, Sigma), and 1× Penicillin/Streptomycin ([…]) (30-002-CI, Corning) to a cell density of 125,000 cells/mL. Dispense 20 μLof resuspended Hela-HiBit cells per well in 384-well TC treated plate (#12-565-343, Thermo Scientific) using standard cassette (#50950372, Thermo Scientific) on Multidrop Combi (#5840310, Thermo Scientific) inside laminar flow cabinet.
Compounds were dissolved in DMSO to make 10 mM stock and 3-fold series dilutions were further conducted keeping the highest concentration 10 μM. Dispense test compounds onto plates using digital liquid dispenser (D300E, Tecan). Incubate plates in humidified tissue culture incubator @37° C. for 18 hours. Add 20 μL of prepared Nano-Glo® HiBiT Lytic detection buffer (N3050, Promega) to each well of 384-well plate using small tube cassette (#24073295, Thermo Scientific) on Multidrop Combi, incubate @ RT for 30-60 min. Read plates on microplate reader (Envision 2105, PerkinElmer) using 384 well Ultra-Sensitive luminescence mode. Raw data files and compound information reports are swept into centralized data lake and deconvoluted using automated scripts designed by TetraScience, Inc. Data analysis, curve-fitting and reporting done in Dotmatics Informatics Suite using Screening Ultra module.
(In general: With HiBiT, luminescence reflects the tagged protein that the partner subunit can reach.)

The next assay deals with T2, SMARCA4 (Homo sapiens, UniProt P51532).
T2 construct: SMARCA4-HiBiT knock-in Hela monoclonal cell (CS3023226); host or cells: HeLa monoclonal cells with heterozygous HiBiT knock-in at the endogenous SMARCA4 locus
T2 sequence (P51532 whole entry): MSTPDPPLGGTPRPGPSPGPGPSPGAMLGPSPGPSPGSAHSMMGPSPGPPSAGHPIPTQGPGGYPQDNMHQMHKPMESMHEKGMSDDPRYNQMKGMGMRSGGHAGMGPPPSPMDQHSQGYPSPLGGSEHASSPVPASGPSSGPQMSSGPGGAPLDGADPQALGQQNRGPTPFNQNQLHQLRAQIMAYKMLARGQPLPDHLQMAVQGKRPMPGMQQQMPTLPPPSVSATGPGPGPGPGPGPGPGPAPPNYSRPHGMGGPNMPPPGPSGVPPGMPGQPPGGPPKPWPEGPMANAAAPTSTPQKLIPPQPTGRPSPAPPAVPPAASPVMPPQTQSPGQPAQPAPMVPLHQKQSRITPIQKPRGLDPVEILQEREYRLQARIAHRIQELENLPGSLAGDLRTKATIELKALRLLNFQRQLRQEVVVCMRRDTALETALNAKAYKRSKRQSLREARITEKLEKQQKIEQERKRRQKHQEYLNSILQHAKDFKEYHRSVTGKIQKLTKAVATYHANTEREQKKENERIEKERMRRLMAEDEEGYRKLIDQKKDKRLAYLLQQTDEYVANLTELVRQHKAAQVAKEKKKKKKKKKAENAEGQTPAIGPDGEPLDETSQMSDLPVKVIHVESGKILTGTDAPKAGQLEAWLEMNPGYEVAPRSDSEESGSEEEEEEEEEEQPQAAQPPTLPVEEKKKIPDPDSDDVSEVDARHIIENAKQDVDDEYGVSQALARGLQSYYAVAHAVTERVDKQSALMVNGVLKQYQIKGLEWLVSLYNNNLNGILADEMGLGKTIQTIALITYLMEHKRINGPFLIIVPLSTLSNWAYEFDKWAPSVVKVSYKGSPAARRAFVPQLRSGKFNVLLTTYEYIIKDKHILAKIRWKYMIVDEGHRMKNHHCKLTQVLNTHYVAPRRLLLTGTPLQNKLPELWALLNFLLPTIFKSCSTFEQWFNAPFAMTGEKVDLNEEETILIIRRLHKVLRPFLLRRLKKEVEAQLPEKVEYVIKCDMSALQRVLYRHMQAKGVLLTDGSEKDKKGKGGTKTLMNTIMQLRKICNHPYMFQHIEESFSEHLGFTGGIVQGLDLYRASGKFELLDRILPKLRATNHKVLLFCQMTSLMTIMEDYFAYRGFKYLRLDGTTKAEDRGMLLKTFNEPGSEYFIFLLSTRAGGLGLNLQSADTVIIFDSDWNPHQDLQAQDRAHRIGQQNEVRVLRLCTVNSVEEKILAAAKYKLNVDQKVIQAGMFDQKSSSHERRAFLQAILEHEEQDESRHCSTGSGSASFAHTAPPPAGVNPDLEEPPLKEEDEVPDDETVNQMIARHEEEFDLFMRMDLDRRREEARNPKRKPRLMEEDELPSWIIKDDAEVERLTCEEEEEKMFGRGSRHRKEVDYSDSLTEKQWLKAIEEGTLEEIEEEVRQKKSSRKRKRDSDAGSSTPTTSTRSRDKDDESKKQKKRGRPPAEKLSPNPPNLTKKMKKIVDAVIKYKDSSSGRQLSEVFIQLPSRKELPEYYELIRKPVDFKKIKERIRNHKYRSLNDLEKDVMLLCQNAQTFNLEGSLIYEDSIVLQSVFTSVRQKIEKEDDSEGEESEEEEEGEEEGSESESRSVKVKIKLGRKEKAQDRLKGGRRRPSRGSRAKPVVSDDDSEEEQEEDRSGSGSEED
The assay can be described thus: SMARCA4 HiBiT degradation assay in HeLa cells. The class given is cell-based. As to conditions: 18 hours, highest concentration 10 μM. Here is the method: as §1
HiBiT peptide knock-in of SMARCA2 in LgBiT expressing HEK293T cells was performed by CRISPR-mediated tagging system as described Promega. […] SMARCA2-HiBiT knock-in Hela monoclonal cell (CS302366) and SMARCA4-HiBiT knock-in Hela monoclonal cell (CS3023226) were purchased from Promega.
as §2
Remove appropriate volume of resuspended cells from culture flask to accommodate 2500 cells/well @ 20 μL/well. […] Spin down at 1000 rpm for 5 min using tabletop centrifuge (SPINCHRON 15, Beckman).
Dispense test compounds onto plates using digital liquid dispenser (D300E, Tecan). Incubate plates in humidified tissue culture incubator @37° C. for 18 hours. […] Raw data files and compound information reports are swept into centralized data lake and deconvoluted using automated scripts designed by TetraScience, Inc. Data analysis, curve-fitting and reporting done in Dotmatics Informatics Suite using Screening Ultra module.

T1 sequence (P51531 whole entry): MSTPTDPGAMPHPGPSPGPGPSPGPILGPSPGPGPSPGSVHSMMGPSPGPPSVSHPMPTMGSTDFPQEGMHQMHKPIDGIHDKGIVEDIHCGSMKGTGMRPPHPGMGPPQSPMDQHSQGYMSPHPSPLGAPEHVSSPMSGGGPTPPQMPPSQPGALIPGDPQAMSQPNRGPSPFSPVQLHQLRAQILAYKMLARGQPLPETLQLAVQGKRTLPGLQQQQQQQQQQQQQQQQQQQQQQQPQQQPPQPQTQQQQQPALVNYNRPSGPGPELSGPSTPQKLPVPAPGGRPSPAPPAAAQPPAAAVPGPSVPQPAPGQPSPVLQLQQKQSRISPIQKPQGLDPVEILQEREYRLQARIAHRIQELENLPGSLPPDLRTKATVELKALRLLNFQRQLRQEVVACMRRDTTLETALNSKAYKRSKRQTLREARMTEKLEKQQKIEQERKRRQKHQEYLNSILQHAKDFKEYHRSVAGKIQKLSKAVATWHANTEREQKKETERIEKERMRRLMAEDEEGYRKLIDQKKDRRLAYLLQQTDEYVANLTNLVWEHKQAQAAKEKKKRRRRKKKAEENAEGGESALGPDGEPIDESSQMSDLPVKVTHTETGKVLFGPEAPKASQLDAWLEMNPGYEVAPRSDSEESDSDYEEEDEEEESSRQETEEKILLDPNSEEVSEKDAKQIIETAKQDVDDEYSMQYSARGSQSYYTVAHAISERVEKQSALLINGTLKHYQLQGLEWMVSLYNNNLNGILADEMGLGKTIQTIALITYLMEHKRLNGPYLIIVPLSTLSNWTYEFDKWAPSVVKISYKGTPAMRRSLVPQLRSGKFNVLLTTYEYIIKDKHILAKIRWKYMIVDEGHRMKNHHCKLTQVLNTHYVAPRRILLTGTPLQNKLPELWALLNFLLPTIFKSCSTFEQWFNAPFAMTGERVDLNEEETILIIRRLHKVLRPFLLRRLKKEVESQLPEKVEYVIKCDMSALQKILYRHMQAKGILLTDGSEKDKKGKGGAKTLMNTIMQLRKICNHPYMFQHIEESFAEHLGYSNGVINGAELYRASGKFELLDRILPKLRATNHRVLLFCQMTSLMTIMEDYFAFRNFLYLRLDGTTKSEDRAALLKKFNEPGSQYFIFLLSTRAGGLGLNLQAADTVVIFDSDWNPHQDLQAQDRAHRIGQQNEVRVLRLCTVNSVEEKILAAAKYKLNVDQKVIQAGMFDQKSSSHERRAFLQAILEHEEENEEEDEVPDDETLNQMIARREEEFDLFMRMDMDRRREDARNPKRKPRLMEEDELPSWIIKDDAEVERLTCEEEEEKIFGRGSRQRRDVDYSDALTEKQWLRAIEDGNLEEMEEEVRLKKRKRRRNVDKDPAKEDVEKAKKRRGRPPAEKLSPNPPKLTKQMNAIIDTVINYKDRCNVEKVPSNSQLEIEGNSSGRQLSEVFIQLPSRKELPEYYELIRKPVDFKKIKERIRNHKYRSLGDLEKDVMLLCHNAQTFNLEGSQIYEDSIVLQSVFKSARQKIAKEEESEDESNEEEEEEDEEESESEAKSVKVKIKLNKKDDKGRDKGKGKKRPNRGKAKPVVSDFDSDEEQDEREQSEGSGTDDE

The term DC50 denotes the midpoint of the concentration-degradation curve. By Dmax is commonly meant the greatest extent of degradation seen. Lower therefore signals shallow degradation. On to `CC[C@@]12CNc3nnc(-c4cccc(F)c4O)cc3N1C[C@H](Oc1cnc(CN3CCC(c4ccc5c(c4)C(=O)N([C@H]4CCC(=O)NC4=O)C5)CC3)c(F)c1)C2` [Example 101, (S)-3-(6-(1-((5-(((6aR,8R)-6a-ethyl-2-(3-fluoro-2-hydroxyphenyl)-5,6,6a,7,8,9-hexahydropyrrolo[1′,2′:4,5]pyrazino[2,3-c]pyridazin-8-yl)oxy)-3-fluoropyridin-2-yl)methyl)piperidin-4-yl)-1-oxoisoindolin-2-yl)piperidine-2,6-dione], for which, at SMARCA2, the 50% degradation concentration (DC50) is less than 0.1 µM and the Dmax was more than 75%. For the same compound, on SMARCA4, the DC50 fell in the range of 0.1 to 1 µM and the Dmax was less than 50%.
The corresponding values for `Cc1nc(O[C@H]2CN3c4cc(-c5cccc(F)c5O)nnc4NC[C@]3(C(F)F)C2)c(C)nc1CN1CCN(c2ccc3c(c2)C(=O)N([C@H]2CCC(=O)NC2=O)C3)CC1` [Example 48, (S)-3-(6-(4-((5-(((6aS,8R)-6a-(difluoromethyl)-2-(3-fluoro-2-hydroxyphenyl)-5,6,6a,7,8,9-hexahydropyrrolo[1′,2′:4,5]pyrazino[2,3-c]pyridazin-8-yl)oxy)-3,6-dimethylpyrazin-2-yl)methyl)piperazin-1-yl)-1-oxoisoindolin-2-yl)piperidine-2,6-dione] are less than 0.1 µM, 50 to 75%, 0.1 to 1 µM and less than 50%.
As to `CC[C@]12CNc3nnc(-c4cccc(Cl)c4O)cc3N1C[C@H](Oc1cnc(CN3CCC(c4ccc5c(c4)C(=O)N([C@H]4CCC(=O)NC4=O)C5)CC3)c(Cl)c1)C2` [Example 99, (S)-3-(6-(1-((3-chloro-5-(((6aS,8R)-2-(3-chloro-2-hydroxyphenyl)-6a-ethyl-5,6,6a,7,8,9-hexahydropyrrolo[1′,2′:4,5]pyrazino[2,3-c]pyridazin-8-yl)oxy)pyridin-2-yl)methyl)piperidin-4-yl)-1-oxoisoindolin-2-yl)piperidine-2,6-dione], at SMARCA2, the half-maximal degradation concentration (DC50) was less than 0.1 µM and the maximal degradation (Dmax) is more than 75%. On SMARCA4, this compound had a DC50 of less than 0.1 µM and a maximal degradation (Dmax) of 50 to 75%.
In the case of `Cc1cc(O[C@@H]2C[C@@H]3CNc4nnc(-c5cc(F)cc(F)c5O)cc4N3C2)ncc1CN1CCN(c2ccc3c(c2)C(=O)N(C2CCC(=O)NC2=O)C3)CC1` (stereo partly drawn) [Example 27, 3-(6-(4-((6-(((6aR,8R)-2-(3,5-difluoro-2-hydroxyphenyl)-5,6,6a,7,8,9-hexahydropyrrolo[1′,2′:4,5]pyrazino[2,3-c]pyridazin-8-yl)oxy)-4-methylpyridin-3-yl)methyl)piperazin-1-yl)-1-oxoisoindolin-2-yl)piperidine-2,6-dione], on SMARCA2, the 50% degradation concentration (DC50) was less than 0.1 µM and the maximal degradation (Dmax) was more than 75%. Further, at SMARCA4, the DC50 was less than 0.1 µM and the Dmax was 50 to 75%.
On SMARCA2, `COc1cc(CN2CCN(c3ccc4c(c3)C(=O)N(C3CCC(=O)NC3=O)C4)CC2)cnc1O[C@H]1CN2c3cc(-c4cccc(F)c4O)nnc3NC[C@]2(C(F)F)C1` (stereo partly drawn) [Example 53, 3-(6-(4-((6-(((6aS,8R)-6a-(difluoromethyl)-2-(3-fluoro-2-hydroxyphenyl)-5,6,6a,7,8,9-hexahydropyrrolo[1′,2′:4,5]pyrazino[2,3-c]pyridazin-8-yl)oxy)-5-methoxypyridin-3-yl)methyl)piperazin-1-yl)-1-oxoisoindolin-2-yl)piperidine-2,6-dione] gave a DC50 of less than 0.1 µM and a Dmax of more than 75%. On SMARCA4, this compound yielded a DC50 of less than 0.1 µM and a Dmax of more than 75%.
At SMARCA2, `O=C1CCC(N2Cc3ccc(N4CCN(Cc5ccc(S[C@@H]6C[C@@H]7CNc8nnc(-c9cc(F)cc(F)c9O)cc8N7C6)cc5)CC4)cc3C2=O)C(=O)N1` (some centres unmarked) [Example 32] returned a half-maximal degradation concentration (DC50) of less than 0.1 µM and a Dmax of more than 75%. On SMARCA4, this compound yielded a DC50 of less than 0.1 µM and a maximal degradation (Dmax) of 50 to 75%.
As for `O=C1CCC(N2Cc3ccc(N4CCN(Cc5ccc(O[C@@H]6C[C@@H]7CNc8nnc(-c9cc(F)cc(F)c9O)cc8N7C6)cn5)CC4)cc3C2=O)C(=O)N1` (stereo partly drawn) [Example 3, 3-(6-(4-((5-(((6aR,8R)-2-(3,5-difluoro-2-hydroxyphenyl)-5,6,6a,7,8,9-hexahydropyrrolo[1′,2′:4,5]pyrazino[2,3-c]pyridazin-8-yl)oxy)pyridin-2-yl)methyl)piperazin-1-yl)-1-oxoisoindolin-2-yl)piperidine-2,6-dione], the DC50 on SMARCA2 and at SMARCA4 was less than 0.1 µM in each case. Besides, the Dmax on SMARCA2 was more than 75%; on SMARCA4 it was 50 to 75%.
In the case of `O=C1CCC(N2Cc3ccc(C4CCN(Cc5cnc(O[C@H]6CN7c8cc(-c9cccc(F)c9O)nnc8NC[C@@]7(C(F)F)C6)c(F)c5)CC4)cc3C2=O)C(=O)N1` (stereo partly drawn) [Example 88, 3-(6-(1-((6-(((6aR,8R)-6a-(difluoromethyl)-2-(3-fluoro-2-hydroxyphenyl)-5,6,6a,7,8,9-hexahydropyrrolo[1′,2′:4,5]pyrazino[2,3-c]pyridazin-8-yl)oxy)-5-fluoropyridin-3-yl)methyl)piperidin-4-yl)-1-oxoisoindolin-2-yl)piperidine-2,6-dione], the DC50 is less than 0.1 µM on SMARCA2 and 0.1 to 1 µM at SMARCA4. The Dmax is more than 75% at SMARCA2 and less than 50% on SMARCA4.
On SMARCA2, `O=C1CC[C@H](N2Cc3ccc(N4CCN(Cc5ccc(O[C@H]6CN7c8cc(-c9cccc(F)c9O)nnc8NC[C@@]7(C(F)F)C6)nc5)CC4)cc3C2=O)C(=O)N1` [Example 43, (S)-3-(6-(4-((6-(((6aR,8R)-6a-(difluoromethyl)-2-(3-fluoro-2-hydroxyphenyl)-5,6,6a,7,8,9-hexahydropyrrolo[1′,2′:4,5]pyrazino[2,3-c]pyridazin-8-yl)oxy)pyridin-3-yl)methyl)piperazin-1-yl)-1-oxoisoindolin-2-yl)piperidine-2,6-dione] registered a DC50 of less than 0.1 µM and a Dmax of more than 75%. Also, at SMARCA4, the DC50 is more than 1 µM and the Dmax was less than 50%.
Consider `CC[C@@]12CNc3nnc(-c4cccc(F)c4O)cc3N1C[C@H](Oc1cc(C)c(CN3CCC(c4ccc5c(c4)C(=O)N(C4CCC(=O)NC4=O)C5)CC3)cn1)C2` (stereo partly drawn) [Example 106, 3-(6-(1-((6-(((6aR,8R)-6a-ethyl-2-(3-fluoro-2-hydroxyphenyl)-5,6,6a,7,8,9-hexahydropyrrolo[1′,2′:4,5]pyrazino[2,3-c]pyridazin-8-yl)oxy)-4-methylpyridin-3-yl)methyl)piperidin-4-yl)-1-oxoisoindolin-2-yl)piperidine-2,6-dione], for which the DC50 at SMARCA2 is less than 0.1 µM; at SMARCA4, 0.1 to 1 µM. The Dmax on SMARCA2 was more than 75%; at SMARCA4, less than 50%.
Consider `O=C1CCC(N2Cc3ccc(N4CCN(Cc5ccc(O[C@@H]6C[C@@H]7CNc8nnc(-c9cccc(Cl)c9O)cc8N7C6)cc5)CC4)cc3C2=O)C(=O)N1` (stereo partly drawn) [Example 8, 3-(6-(4-(4-(((6aR,8R)-2-(3-chloro-2-hydroxyphenyl)-5,6,6a,7,8,9-hexahydropyrrolo[1′,2′:4,5]pyrazino[2,3-c]pyridazin-8-yl)oxy)benzyl)piperazin-1-yl)-1-oxoisoindolin-2-yl)piperidine-2,6-dione], for which, on SMARCA2, the DC50 was less than 0.1 µM and the Dmax is more than 75%. On SMARCA4, this compound yielded a DC50 of less than 0.1 µM and a Dmax of more than 75%.
